Test results: ChEMBL document CHEMBL5291721, “A preclinical secondary pharmacology resource illuminates target-adverse drug reaction associations of marketed drugs” (Nat Commun, 2023)

What was measured:
[1] = target: T1, Alpha-2C adrenergic receptor (Homo sapiens, UniProt P18825); format: functional
T1 sequence (P18825 whole entry): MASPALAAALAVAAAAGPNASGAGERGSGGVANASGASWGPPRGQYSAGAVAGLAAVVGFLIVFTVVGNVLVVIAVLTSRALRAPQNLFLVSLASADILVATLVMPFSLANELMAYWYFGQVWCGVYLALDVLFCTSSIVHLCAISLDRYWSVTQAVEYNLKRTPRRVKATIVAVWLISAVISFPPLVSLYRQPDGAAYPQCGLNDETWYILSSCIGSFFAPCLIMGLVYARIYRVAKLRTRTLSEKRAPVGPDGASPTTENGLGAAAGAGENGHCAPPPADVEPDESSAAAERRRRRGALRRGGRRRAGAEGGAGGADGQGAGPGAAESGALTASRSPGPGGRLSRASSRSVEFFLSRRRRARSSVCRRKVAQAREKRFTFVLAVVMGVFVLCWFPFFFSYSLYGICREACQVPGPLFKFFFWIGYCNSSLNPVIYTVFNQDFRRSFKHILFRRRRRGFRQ

Vasopressin V2 receptor = Vasopressin V2 receptor (Homo sapiens, UniProt P30518)
Chain of Vasopressin V2 receptor (P30518 whole entry): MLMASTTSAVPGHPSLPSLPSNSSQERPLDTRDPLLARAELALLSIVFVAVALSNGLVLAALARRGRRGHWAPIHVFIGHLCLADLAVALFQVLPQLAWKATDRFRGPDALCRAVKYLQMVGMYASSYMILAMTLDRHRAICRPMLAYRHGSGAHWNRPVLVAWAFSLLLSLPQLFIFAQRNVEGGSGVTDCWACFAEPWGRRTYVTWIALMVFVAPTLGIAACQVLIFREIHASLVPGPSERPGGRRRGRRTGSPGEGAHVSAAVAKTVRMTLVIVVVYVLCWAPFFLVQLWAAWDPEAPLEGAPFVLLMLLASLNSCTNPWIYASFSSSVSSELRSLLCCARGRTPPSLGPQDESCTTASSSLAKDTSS

[2] = target: T2, Gastrin/cholecystokinin type B receptor (Homo sapiens, UniProt P32239)
T2 sequence (P32239 whole entry): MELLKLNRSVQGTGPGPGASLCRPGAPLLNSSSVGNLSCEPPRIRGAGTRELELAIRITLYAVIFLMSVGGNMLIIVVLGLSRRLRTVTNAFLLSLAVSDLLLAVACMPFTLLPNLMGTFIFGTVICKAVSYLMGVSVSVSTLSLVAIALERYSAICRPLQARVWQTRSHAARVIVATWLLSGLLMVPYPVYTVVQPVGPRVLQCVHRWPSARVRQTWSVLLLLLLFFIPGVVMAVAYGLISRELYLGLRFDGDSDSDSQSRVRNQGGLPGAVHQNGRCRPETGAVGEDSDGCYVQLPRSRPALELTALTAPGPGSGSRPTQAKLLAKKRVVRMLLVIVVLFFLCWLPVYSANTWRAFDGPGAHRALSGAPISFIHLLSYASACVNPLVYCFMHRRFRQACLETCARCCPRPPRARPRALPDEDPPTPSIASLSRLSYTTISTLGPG

Cannabinoid receptor 1 = Cannabinoid receptor 1 (Homo sapiens, UniProt P21554); format: functional, cell-based
Chain of Cannabinoid receptor 1 (P21554 whole entry): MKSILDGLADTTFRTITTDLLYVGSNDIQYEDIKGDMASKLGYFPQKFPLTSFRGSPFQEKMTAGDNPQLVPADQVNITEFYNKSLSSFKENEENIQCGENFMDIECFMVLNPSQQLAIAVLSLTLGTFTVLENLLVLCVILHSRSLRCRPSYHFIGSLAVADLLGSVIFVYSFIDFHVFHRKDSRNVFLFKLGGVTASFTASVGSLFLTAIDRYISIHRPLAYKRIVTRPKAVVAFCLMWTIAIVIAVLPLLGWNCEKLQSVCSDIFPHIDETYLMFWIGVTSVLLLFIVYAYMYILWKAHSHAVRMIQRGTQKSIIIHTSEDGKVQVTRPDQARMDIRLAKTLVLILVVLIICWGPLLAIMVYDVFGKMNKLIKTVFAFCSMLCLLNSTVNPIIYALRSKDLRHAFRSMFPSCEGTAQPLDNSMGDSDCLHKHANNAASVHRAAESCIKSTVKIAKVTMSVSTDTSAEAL

D(1A) dopamine receptor = D(1A) dopamine receptor (Homo sapiens, UniProt P21728)
Chain of D(1A) dopamine receptor (P21728 whole entry): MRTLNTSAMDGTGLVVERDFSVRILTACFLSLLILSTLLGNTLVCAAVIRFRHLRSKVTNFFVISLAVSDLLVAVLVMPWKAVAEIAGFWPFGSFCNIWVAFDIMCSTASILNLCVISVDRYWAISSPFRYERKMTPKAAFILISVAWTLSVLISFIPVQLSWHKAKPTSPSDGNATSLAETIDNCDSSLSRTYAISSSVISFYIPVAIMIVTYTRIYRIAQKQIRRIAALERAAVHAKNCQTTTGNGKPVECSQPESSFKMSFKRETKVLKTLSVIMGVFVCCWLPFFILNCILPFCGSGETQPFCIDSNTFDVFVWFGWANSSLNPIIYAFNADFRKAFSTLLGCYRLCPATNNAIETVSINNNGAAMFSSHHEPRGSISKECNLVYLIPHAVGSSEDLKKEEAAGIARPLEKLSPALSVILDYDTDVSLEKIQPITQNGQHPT

[3] = target: 5-hydroxytryptamine receptor 2B (Homo sapiens, UniProt P41595); format: functional, cell-based
Chain of 5-hydroxytryptamine receptor 2B (P41595 whole entry): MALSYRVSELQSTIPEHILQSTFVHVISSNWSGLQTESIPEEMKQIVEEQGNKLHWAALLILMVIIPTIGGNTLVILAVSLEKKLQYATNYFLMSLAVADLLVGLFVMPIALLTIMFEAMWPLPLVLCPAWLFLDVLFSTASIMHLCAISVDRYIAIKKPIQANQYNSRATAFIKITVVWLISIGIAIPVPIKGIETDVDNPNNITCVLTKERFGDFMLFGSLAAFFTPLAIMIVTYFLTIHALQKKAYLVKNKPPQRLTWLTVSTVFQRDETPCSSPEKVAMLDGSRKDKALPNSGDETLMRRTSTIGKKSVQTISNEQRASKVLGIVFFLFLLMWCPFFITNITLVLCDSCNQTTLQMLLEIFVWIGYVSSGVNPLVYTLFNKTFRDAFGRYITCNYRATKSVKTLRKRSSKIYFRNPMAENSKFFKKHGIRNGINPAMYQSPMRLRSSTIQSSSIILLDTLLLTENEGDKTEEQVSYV

[4] = target: T3, 5-hydroxytryptamine receptor 2C (Homo sapiens, UniProt P28335)
T3 sequence (P28335 whole entry): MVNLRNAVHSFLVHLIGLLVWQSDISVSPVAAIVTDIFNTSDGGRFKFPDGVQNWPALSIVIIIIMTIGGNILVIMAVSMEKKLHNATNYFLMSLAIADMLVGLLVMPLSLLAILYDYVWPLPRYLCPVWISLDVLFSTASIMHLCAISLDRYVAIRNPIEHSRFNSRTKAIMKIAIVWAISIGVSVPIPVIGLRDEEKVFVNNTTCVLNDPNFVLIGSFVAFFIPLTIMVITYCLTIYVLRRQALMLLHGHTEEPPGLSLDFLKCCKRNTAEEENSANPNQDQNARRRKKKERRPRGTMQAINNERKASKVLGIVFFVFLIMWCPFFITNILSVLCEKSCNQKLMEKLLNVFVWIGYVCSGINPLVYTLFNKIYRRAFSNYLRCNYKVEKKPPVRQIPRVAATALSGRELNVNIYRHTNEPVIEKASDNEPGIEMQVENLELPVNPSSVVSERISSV

[5] = target: Vascular endothelial growth factor receptor 2 (Homo sapiens, UniProt P35968); format: functional
Chain of Vascular endothelial growth factor receptor 2 (P35968 whole entry): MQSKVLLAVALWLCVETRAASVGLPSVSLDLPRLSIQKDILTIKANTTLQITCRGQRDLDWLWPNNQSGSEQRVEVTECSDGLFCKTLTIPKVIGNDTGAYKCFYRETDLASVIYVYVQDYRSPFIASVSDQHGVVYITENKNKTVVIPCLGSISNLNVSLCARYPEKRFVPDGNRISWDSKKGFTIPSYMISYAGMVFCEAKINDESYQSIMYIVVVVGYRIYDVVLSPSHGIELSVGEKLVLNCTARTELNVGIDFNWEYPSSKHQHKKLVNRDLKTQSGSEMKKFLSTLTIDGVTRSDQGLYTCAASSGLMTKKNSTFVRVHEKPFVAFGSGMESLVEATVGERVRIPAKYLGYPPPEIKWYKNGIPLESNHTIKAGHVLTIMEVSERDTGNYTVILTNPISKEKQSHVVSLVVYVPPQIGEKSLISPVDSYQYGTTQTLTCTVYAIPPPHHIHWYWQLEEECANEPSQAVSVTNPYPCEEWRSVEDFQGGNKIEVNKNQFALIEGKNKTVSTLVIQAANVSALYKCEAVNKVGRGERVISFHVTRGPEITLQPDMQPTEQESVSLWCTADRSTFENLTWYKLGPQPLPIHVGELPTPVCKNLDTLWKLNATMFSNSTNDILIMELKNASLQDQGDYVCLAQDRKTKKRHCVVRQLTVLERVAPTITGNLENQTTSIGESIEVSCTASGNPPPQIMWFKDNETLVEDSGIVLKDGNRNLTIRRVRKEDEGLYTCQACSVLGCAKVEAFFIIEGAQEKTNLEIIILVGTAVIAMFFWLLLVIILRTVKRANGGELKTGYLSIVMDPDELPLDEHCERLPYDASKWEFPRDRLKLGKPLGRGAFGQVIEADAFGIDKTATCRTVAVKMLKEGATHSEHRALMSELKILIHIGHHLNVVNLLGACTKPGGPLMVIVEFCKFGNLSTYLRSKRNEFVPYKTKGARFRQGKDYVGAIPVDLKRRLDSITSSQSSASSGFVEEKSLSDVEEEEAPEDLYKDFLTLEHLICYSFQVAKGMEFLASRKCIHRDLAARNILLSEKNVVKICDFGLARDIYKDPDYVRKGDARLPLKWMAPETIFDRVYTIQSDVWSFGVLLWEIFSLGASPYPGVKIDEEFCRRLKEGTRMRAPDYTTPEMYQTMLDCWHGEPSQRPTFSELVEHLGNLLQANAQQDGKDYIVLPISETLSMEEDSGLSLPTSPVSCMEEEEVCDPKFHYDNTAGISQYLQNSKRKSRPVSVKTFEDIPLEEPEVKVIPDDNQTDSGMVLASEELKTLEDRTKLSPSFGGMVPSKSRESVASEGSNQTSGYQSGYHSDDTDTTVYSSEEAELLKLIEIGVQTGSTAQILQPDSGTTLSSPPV

[6] = target: cGMP-inhibited 3',5'-cyclic phosphodiesterase 3A (Homo sapiens, UniProt Q14432); format: functional
Chain of cGMP-inhibited 3',5'-cyclic phosphodiesterase 3A (Q14432 whole entry): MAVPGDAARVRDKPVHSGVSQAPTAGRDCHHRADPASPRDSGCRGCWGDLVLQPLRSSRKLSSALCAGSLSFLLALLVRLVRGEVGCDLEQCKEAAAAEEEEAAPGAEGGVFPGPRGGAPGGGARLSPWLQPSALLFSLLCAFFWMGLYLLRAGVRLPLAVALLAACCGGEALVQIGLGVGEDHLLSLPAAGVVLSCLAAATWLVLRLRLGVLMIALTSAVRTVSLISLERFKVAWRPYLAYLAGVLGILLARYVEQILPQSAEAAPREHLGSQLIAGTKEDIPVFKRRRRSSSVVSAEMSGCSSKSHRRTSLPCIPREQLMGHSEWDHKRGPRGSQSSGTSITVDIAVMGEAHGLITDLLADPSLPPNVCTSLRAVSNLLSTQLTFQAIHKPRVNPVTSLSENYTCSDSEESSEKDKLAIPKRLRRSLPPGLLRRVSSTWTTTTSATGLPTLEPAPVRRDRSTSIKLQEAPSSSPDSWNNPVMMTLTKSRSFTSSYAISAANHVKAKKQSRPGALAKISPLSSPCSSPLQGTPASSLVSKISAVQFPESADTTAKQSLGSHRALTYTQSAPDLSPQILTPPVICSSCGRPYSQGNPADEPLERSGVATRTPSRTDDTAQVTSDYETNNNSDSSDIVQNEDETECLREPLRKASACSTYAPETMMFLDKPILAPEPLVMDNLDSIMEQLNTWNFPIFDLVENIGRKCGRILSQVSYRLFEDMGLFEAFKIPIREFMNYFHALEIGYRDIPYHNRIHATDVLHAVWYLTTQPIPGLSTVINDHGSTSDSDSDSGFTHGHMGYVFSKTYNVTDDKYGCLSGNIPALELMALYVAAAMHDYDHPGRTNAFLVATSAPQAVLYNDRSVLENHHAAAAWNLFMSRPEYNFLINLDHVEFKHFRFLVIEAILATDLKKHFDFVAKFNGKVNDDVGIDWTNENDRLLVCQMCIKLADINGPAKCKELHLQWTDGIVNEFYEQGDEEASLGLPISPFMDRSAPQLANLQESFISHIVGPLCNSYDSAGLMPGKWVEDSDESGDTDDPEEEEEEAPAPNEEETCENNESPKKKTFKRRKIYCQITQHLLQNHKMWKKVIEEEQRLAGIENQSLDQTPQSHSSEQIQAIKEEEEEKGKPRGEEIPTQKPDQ

Glucocorticoid receptor = target: T4, Glucocorticoid receptor (Homo sapiens, UniProt P04150)
T4 sequence (P04150 whole entry): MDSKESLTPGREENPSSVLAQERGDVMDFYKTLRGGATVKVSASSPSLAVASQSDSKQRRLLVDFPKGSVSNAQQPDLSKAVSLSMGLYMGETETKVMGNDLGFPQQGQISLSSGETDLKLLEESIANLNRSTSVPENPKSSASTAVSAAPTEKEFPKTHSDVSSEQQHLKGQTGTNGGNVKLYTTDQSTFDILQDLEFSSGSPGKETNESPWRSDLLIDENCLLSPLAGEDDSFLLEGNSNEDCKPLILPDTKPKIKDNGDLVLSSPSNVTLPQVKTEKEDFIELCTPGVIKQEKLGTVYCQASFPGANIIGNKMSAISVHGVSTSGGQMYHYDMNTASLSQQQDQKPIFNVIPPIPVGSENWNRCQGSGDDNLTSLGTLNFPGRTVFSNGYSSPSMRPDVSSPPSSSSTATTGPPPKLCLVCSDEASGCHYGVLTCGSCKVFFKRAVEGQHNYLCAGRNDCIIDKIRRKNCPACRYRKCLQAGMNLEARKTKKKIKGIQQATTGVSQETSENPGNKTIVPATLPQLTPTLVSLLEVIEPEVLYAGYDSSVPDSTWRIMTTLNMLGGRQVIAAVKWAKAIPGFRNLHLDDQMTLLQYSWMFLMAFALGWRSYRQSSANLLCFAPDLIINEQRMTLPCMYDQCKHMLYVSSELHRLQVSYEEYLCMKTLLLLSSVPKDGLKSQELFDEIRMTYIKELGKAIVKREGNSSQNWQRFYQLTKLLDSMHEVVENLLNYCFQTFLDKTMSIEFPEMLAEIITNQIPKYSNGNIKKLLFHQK

Mu-type opioid receptor = Mu-type opioid receptor (Homo sapiens, UniProt P35372)
Chain of Mu-type opioid receptor (P35372 whole entry): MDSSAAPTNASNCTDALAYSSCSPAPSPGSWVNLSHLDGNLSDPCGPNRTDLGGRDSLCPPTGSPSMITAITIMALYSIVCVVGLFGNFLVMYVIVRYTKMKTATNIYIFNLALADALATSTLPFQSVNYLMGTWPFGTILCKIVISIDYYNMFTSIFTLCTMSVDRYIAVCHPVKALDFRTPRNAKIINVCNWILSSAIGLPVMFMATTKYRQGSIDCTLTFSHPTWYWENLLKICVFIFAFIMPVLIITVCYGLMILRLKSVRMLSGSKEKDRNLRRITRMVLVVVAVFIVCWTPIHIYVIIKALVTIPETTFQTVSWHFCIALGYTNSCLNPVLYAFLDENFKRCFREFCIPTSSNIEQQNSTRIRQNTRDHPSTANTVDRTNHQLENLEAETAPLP
Also: assay procedure not described here.

Row | SMILES | AC50 [1] | AC50 (Vasopressin V2 receptor) | AC50 [2] | AC50 (Cannabinoid receptor 1) | AC50 (D(1A) dopamine receptor) | AC50 [3] | AC50 [4] | AC50 [5] | AC50 [6] | AC50 (Glucocorticoid receptor) | AC50 (Mu-type opioid receptor)
1 | CS(=O)(=O)Nc1ccc([N+](=O)[O-])cc1Oc1ccccc1 [NIMESULIDE] | > 30 µM | 26 µM | > 30 µM | > 30 µM | > 30 µM | > 30 µM | 26 µM | > 30 µM | > 30 µM |  | 
2 | CN(C)CCC=C1c2ccccc2CCc2ccccc21 [AMITRIPTYLINE] | 0.29 µM | > 30 µM | > 30 µM | > 30 µM |  |  | 0.15 µM | > 30 µM | > 30 µM | > 30 µM | > 30 µM
3 | Cc1ccc(C(C)C)c(O)c1 [THYMOL] |  |  |  |  | > 30 µM |  | 170 µM | > 30 µM |  |  | 
4 | C[C@]12CC[C@@H]3c4ccc(OC(=O)N(CCCl)CCCl)cc4CC[C@H]3[C@@H]1CC[C@@H]2OP(=O)(O)O [ESTRAMUSTINE PHOSPHATE] |  |  |  |  | 25.4 µM |  |  | 19.5 µM |  |  | 
5 | O=C1[C@@H]2[C@H]3CC[C@H](C3)[C@@H]2C(=O)N1C[C@@H]1CCCC[C@H]1CN1CCN(c2nsc3ccccc23)CC1 [LURASIDONE] | 1.1 µM |  |  | > 30 µM |  | > 30 µM | 25 µM | > 30 µM | > 30 µM |  | > 30 µM
6 | CC#CC(=O)N1CCC[C@H]1c1nc(-c2ccc(C(=O)Nc3ccccn3)cc2)c2c(N)nccn12 [ACALABRUTINIB] |  |  |  |  | > 30 µM |  |  | 2.01 µM |  |  | 
7 | CC1=C(C/C=C(\C)CCC[C@H](C)CCC[C@H](C)CCCC(C)C)C(=O)c2ccccc2C1=O [PHYTONADIONE] |  |  |  |  | > 30 µM |  |  | > 30 µM |  |  | 
8 | CC(=O)Oc1ccccc1C(=O)O [ASPIRIN] | > 10 µM | > 30 µM | > 30 µM | > 30 µM | > 30 µM | > 10 µM | > 30 µM | > 30 µM | > 30 µM | > 30 µM | > 30 µM
9 | CN1CCC(N(Cc2cccs2)c2ccccc2)CC1 [THENALIDINE] |  |  |  |  | 11.6 µM |  |  | > 30 µM |  |  | 
10 | CCCCCCO[C@@H](C)c1cccc(-c2csc(NC(=O)c3cc(Cl)c(/C=C(\C)C(=O)O)c(Cl)c3)n2)c1OC [LUSUTROMBOPAG] |  |  |  |  | 1.54 µM |  |  | > 30 µM |  |  | 
11 | CN(C)CCCC1(c2ccc(F)cc2)OCc2cc(C#N)ccc21 (stereo unspecified) [CITALOPRAM] | > 10 µM | > 30 µM | > 30 µM | > 30 µM |  | > 30 µM |  | > 30 µM | > 30 µM | > 30 µM | 
12 | OC[C@H]1NC[C@H](O)[C@@H](O)[C@H]1O |  |  |  |  | > 30 µM |  |  | > 30 µM |  |  | 
13 | CCOC(=O)[C@H](CCc1ccccc1)N[C@@H](C)C(=O)N1Cc2ccccc2C[C@H]1C(=O)O | > 10 µM | > 30 µM | > 30 µM | > 30 µM | > 30 µM | > 10 µM | > 10 µM | > 30 µM | > 10 µM | > 30 µM | > 10 µM
14 | CN(C)CCN(Cc1ccccc1)c1ccccn1 [TRIPELENNAMINE] | 9.4 µM | > 10 µM |  |  | 19.4 µM | > 10 µM | > 10 µM | > 30 µM | > 10 µM | > 10 µM | > 30 µM
15 | CCCCCCCC/C=C\CCCCCCCC(=O)O [OLEIC ACID] |  |  |  |  | > 30 µM |  |  | > 30 µM |  |  | 
16 | NC(=O)C1(N2CCCCC2)CCN(CCCC(=O)c2ccc(F)cc2)CC1 [PIPAMPERONE] |  |  |  |  | 0.258 µM |  |  | > 30 µM |  |  | 
17 | Cc1cc(C)cc(OCC2CNC(=O)O2)c1 (stereo unspecified) [METAXALONE] |  |  |  |  | > 30 µM |  |  | > 30 µM |  |  | 
18 | NCC1(CC(=O)O)CCCCC1 [GABAPENTIN] | > 30 µM | > 30 µM | > 30 µM | > 30 µM | > 30 µM | > 30 µM | > 30 µM | > 30 µM | > 30 µM | > 30 µM | > 30 µM
19 | CC(C)NC[C@H](O)COc1ccc(O)cc1 [PRENALTEROL] |  |  |  |  | > 30 µM |  |  | > 30 µM |  |  | 
20 | Cc1c(C)c2c(c(C)c1O)CCC(C)(COc1ccc(CC3SC(=O)NC3=O)cc1)O2 (stereo unspecified) [TROGLITAZONE] | 24 µM | > 30 µM | > 30 µM | > 30 µM | 8.59 µM | > 30 µM | > 30 µM | > 30 µM | 6.19 µM |  | > 30 µM
21 | NC(=O)C1(N2CCCCC2)CCN(CCCN2c3ccccc3CCc3ccccc32)CC1 [CARPIPRAMINE] |  |  |  |  | 0.0928 µM |  |  | > 30 µM |  |  | 
22 | O=C(O)[C@H](O)[C@@H](O)[C@H](O)[C@H](O)CO [GLUCONIC ACID] |  |  |  |  | > 30 µM |  |  | > 30 µM |  |  | 
23 | O=P1(N(CCCl)CCCl)NCCCO1 (stereo unspecified) [CYCLOPHOSPHAMIDE ANHYDROUS] |  |  |  |  | > 30 µM |  |  | > 30 µM |  |  | 
24 | CN1CCN(C(c2ccccc2)c2ccc(Cl)cc2)CC1 (stereo unspecified) [CHLORCYCLIZINE] |  |  |  |  | 6.89 µM |  |  | > 30 µM |  |  | 
